# From patent US20250163010A1, “PROCESSES FOR THE PREPARATION OF N-(1-METHYLCYCLOPROPYL)-2-(3-PYRIDINYL)-2H-INDAZOLE-4-CARBOXAMIDE AND INTERMEDIATES THEREOF” (FMC CORPORATION, priority 2022, published 2025)
# Assays:
# [1] = Form A and Form B interconversion (competitive) slurries; assay type: physicochemical
# Description: Relative thermodynamic stabilities of anhydrous/non-solvated Forms A and B were studied at 2-8° C., room temperature (RT) and at 71-72° C. via interconversion (competitive) slurries. In these slurries, a given solvent system was pre-saturated with compound 092 (Form A+minor Form B) at the stated temperature, and a portion of the liquid phase was filtered into a mixture of solids containing relatively equal amounts of Form A and Form B. Interconversion slurries at 2-8° C. and RT were allowed to stir for 22 days, while slurries at 71-72° C. stirred for shorter duration (2-4 days). […] The results are reported in table 13 below where: liquid phase for each slurry was pre-saturated using as-received Form A+minor Form B; solvent ratios are v/v; water activity values were calculated using UNIFAC calculator at RT; and times and temperatures are approximate.
# [2] = Stable polymorph form screen by slurry experiments; assay type: physicochemical; conditions: between 2° C. and 73° C.; conclusion from slurries
# Description: Slurry experiments were conducted to identify the stable form at various conditions. In these experiments, saturated solutions in various solvents containing excess undissolved solids (starting with Form A+minor Form B) were stirred for extended durations. Slurries at room temperature (RT) and 2-8° C. were typically conducted for approximately 2 weeks, while slurries at 72-73° C. were stirred for a shorter duration (1 day) to minimize the potential for decomposition. […] The results are shown in the table 12 where the time and temperatures are approximate.
"Final form (XRPD Result) ([1]; competitive slurry in EtOH, 71-72° C., 2 d, relatively equal amounts of Form A and Form B)","Final form (XRPD Result) ([1]; competitive slurry in EtOH, RT, 22 d, relatively equal amounts of Form A and Form B)","Final form (XRPD Result) ([1]; competitive slurry in NMP/water 80:20 (aw 0.39), 2-8° C., 22 d, relatively equal amounts of Form A and Form B)","Final form (XRPD Result) ([1]; competitive slurry in NMP/water 80:20 (aw 0.39), 71-72° C., 2 d, analyzed damp)","Final form (XRPD Result) ([1]; competitive slurry in NMP/water 80:20 (aw 0.39), RT, 22 d, relatively equal amounts of Form A and Form B)",Relative stability of polymorph forms [2],"Relative thermodynamic stability of polymorph forms ([1]; between 2° C. and 72° C., conclusion from competitive slurries)",SMILES
Form A,Form A,Form A,Form A,Form A,–,–,"CC1(NC(=O)c2cccc3nn(-c4cccnc4)cc23)CC1 [Form A + Form B, N-(1-methylcyclopropyl)-2-(3-pyridinyl)-2H-indazole 4-carboxamide]"
–,–,–,–,–,more stable than Form B,thermodynamically stable form,"CC1(NC(=O)c2cccc3nn(-c4cccnc4)cc23)CC1 [Form A, N-(1-methylcyclopropyl)-2-(3-pyridinyl)-2H-indazole 4-carboxamide]"
